The values that follow come from patent US8680122B2, “Substituted pyrrolones as allosteric modulators of glucokinase” (Janssen Pharmacetica N.V., priority 2005, dated 2014).

For one assay, the target named is T1, Pancreas GK (Homo sapiens, UniProt P35557).
T1 construct: (His)6; made in house; host or cells: Escherichia coli
T1 sequence (P35557 1-465): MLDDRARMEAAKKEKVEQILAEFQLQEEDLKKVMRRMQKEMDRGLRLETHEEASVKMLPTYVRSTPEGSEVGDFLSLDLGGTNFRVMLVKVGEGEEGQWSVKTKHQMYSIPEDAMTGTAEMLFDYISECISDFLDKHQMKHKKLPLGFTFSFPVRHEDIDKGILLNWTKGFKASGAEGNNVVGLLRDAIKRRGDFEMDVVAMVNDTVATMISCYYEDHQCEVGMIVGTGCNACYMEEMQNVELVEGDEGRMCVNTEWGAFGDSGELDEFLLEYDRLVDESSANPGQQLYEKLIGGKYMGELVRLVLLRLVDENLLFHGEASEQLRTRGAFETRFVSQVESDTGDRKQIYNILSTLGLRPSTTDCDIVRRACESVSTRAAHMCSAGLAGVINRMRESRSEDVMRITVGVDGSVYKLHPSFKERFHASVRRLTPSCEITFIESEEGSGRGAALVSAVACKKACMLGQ
Briefly: Glucokinase enzyme assay, pancreas GK. The assay is classed as biochemical. The settings on record: for EC50: concentration that produces 50% activation above the vehicle control; for EC100%: concentration that produces 100% activation above the vehicle control; for activation at 50 µM: percentage increase in GK activity above vehicle control, compound 50 μM, 12 mM glucose. The source says: (§1) An enzymatic Glucokinase (GK) assay using purified recombinant human liver/pancreas enzyme was used to evaluate the effects of potential small molecule modulators.
(§2) In this assay, GK catalyzes glucose phosphorylation in the presence of ATP. The product of this reaction, glucose-6-phosphate, was then oxidized by an excess of glucose-6-phosphate dehydrogenase to produce gluconate-6-phosphate with concomitant reduction of nicotinamide adenine dinucleotide (NAD). […] Human GK (Liver/Pancreas) was expressed in Escherichia coli as a (His) 6-tagged fusion protein and was purified by metal chelate affinity chromatography. The assay was performed in a final incubation volume of 80 μl in a 96-well clear low UV absorption plates. The incubation mixture consisted of 25 mM HEPES, 2 mM MgSO4, 1 mM dithiothreotol (DTT), 1 mg/mL bovine serum albumin (BSA), 1 mM ATP, 1 mM NAD, and 12 mM glucose, 10 units per mL glucose-6-phosphate dehydrogenase, and +/−300 ng per mL GK. For determination of the affinity (Km) and Vmax, different concentrations of glucose ranging from 0.5 mM to 40 mM were used in the assay; see Grimsby, J., Sarabu, R.; Grippo, J. F.; et. al. Science 2003, 301, 370-373. Production of reduced NAD (Nicotinamide Adenine Dinucleotide) was measured as changes in absorption at 340 nm in 96-well plate reader (Envision model #2101 Multilabel Plate reader). % Activation @ 50 μM was calculated as the percentage increase in GK activity above the vehicle control with the effective concentration of the compound being 50 μM. EC50% (μM) was calculated as the effective concentration of the compound that produces 50% activation above the vehicle control, and EC100% (μM) was calculated as the effective concentration of the compound that produces 100% activation above the vehicle control.

The target of the next assay is T2, Liver GK (Homo sapiens, UniProt P35557).
T2 construct: (His)6; made in house; host or cells: Escherichia coli
T2 sequence (P35557 1-466 isoform P35557-2): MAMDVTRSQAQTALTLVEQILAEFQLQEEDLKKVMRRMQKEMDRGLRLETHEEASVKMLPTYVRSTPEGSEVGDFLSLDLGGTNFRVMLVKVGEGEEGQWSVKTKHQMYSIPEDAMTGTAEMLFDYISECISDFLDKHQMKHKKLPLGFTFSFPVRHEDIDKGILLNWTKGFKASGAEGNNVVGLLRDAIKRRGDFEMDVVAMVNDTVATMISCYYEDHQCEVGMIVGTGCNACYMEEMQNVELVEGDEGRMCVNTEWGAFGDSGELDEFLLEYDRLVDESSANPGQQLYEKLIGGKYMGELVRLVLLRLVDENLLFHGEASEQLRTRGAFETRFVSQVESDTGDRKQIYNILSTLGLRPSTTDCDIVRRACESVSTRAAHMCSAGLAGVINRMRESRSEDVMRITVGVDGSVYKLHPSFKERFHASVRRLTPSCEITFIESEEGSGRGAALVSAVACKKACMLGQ
Briefly: Glucokinase enzyme assay, liver GK. The assay is classed as biochemical. The settings on record: for EC50: concentration that produces 50% activation above the vehicle control; for EC100%: concentration that produces 100% activation above the vehicle control; for activation at 50 µM: percentage increase in GK activity above vehicle control, compound 50 μM, 12 mM glucose.
Text: as §1, §2

Several values for one entry are separate records, joined by “and”; a condition that tells them apart may be missing. Identical values can stand only once. A value given as a limit tells only on which side of the number the result lay.

On to `COC(=O)c1ccc(NC(=O)CSC2C(C)=C(C)C(=O)N2Cc2ccc(OC)cc2)nc1` (centres unmarked) [Compound 1, 6-{2-[1-(4-Methoxy-benzyl)-3,4-dimethyl-5-oxo-2,5-dihydro-1H-pyrrol-2-ylsulfanyl]-acetylamino}-nicotinic acid methyl ester], for which, on Pancreas GK, the EC50 was found to be 0.64 µM, the “EC100%” value came to 2.23 µM and the activation at 50 µM is 287%. Further, on Liver GK, the EC50 was 0.39 µM and 0.26 µM; the “EC100%” value was determined as 1.46 µM.

As for `COc1ccc(CN2C(=O)C(C)=C(C)C2SCC(=O)Nc2ccc(C(N)=O)cn2)cc1` (centres unmarked) [Compound 18], at Pancreas GK, the EC50 is 3.51 µM, the “EC100%” value came to 12.02 µM and the activation at 50 µM worked out at 167%. In addition, at Liver GK, the EC50 is 1.13 µM, the “EC100%” value is 3.61 µM and the activation at 50 µM stood at 217%.

For the molecule `COc1ccc(CN2C(=O)C=C(C)C2SCC(=O)Nc2ccccn2)cc1` (centres unmarked) [Compound 19, 2-[1-(4-Methoxy-benzyl)-3-methyl-5-oxo-2,5-dihydro-1H-pyrrol-2-ylsulfanyl]-N-pyridin-2-yl-acetamide], the EC50 at Pancreas GK amounted to 15.2 µM; at Liver GK, 13.8 µM. The “EC100%” value came to 47.3 µM at Pancreas GK and 30.5 µM on Liver GK.

As for `CC1=C(C)C(SCC(=O)Nc2ccccn2)N(Cc2ccc3c(c2)CCO3)C1=O` (centres unmarked) [Compound 20, 2-[1-(2,3-Dihydro-benzofuran-5-ylmethyl)-3,4-dimethyl-5-oxo-2,5-dihydro-1H-pyrrol-2-ylsulfanyl]-N-pyridin-2-yl-acetamide], at Pancreas GK, the EC50 stood at 3.23 µM and the “EC100%” value worked out at 8.87 µM. In addition, on Liver GK, the EC50 stood at 2.78 µM and the “EC100%” value was determined as 6.61 µM.

Regarding `COc1ccc(CN2C(=O)C(C)=C(C)C2SCC(=O)Nc2cc(C)ccn2)cc1` (centres unmarked) [Compound 21, 2-[1-(4-Methoxy-benzyl)-3,4-dimethyl-5-oxo-2,5-dihydro-1H-pyrrol-2-ylsulfanyl]-N-(4-methyl-pyridin-2-yl)-acetamide], on Pancreas GK, the EC50 came to 7.12 µM and the “EC100%” value amounted to 19.43 µM. Besides, on Liver GK, the EC50 is 4.73 µM and the “EC100%” value is 12.68 µM.

At Pancreas GK, `CCc1ccnc(NC(=O)CSC2C(C)=C(C)C(=O)N2Cc2ccc(OC)cc2)c1` (centres unmarked) [Compound 22, N-(4-Ethyl-pyridin-2-yl)-2-[1-(4-methoxy-benzyl)-3,4-dimethyl-5-oxo-2,5-dihydro-1H-pyrrol-2-ylsulfanyl]-acetamide] registered an EC50 of 24.1 µM and an activation at 50 µM of 70%. Moreover, on Liver GK, the EC50 was found to be 17.3 µM and the activation at 50 µM was 82%.

Consider `COc1ccc(CN2C(=O)C(C)=C(C)C2SCC(=O)Nc2cccc(C)n2)cc1` (centres unmarked) [Compound 23, 2-[1-(4-Methoxy-benzyl)-3,4-dimethyl-5-oxo-2,5-dihydro-1H-pyrrol-2-ylsulfanyl]-N-(6-methyl-pyridin-2-yl)-acetamide], for which, at Pancreas GK, the EC50 was 8.13 µM and the “EC100%” value was 20.28 µM. Also, at Liver GK, the EC50 came to 6.23 µM and the “EC100%” value was determined as 13.78 µM.

As to `CC1=C(C)C(SCC(=O)Nc2ccccn2)N(Cc2cccs2)C1=O` (centres unmarked) [Compound 24, 2-(3,4-Dimethyl-5-oxo-1-thiophen-2-ylmethyl-2,5-dihydro-1H-pyrrol-2-ylsulfanyl)-N-pyridin-2-yl-acetamide], on Pancreas GK, the EC50 came out at 13.6 µM, the “EC100%” value amounted to 37.3 µM and the activation at 50 µM stood at 124%. For the same molecule, on Liver GK, the EC50 came out at 8.4 µM, the “EC100%” value came to 26.7 µM and the activation at 50 µM was determined as 172%.

With `CC1=C(C)C(SCC(=O)Nc2ccccn2)N(Cc2ccc(C(C)C)cc2)C1=O` (centres unmarked) [Compound 25, 2-[1-(4-Isopropyl-benzyl)-3,4-dimethyl-5-oxo-2,5-dihydro-1H-pyrrol-2-ylsulfanyl]-N-pyridin-2-yl-acetamide], at Pancreas GK, the EC50 stood at 14.7 µM, the “EC100%” value amounted to 44.9 µM and the activation at 50 µM is 130%. Moreover, at Liver GK, the EC50 is 6.3 µM, the “EC100%” value turned out to be 28.5 µM and the activation at 50 µM is 180%.

On Pancreas GK, `CCc1ccc(CN2C(=O)C(C)=C(C)C2SCC(=O)Nc2ccccn2)cc1` (centres unmarked) [Compound 26, 2-[1-(4-Ethyl-benzyl)-3,4-dimethyl-5-oxo-2,5-dihydro-1H-pyrrol-2-ylsulfanyl]-N-pyridin-2-yl-acetamide] had an EC50 of 24 µM and an activation at 50 µM of 102%. Also, at Liver GK, the EC50 stood at 15.3 µM, the “EC100%” value was 35.9 µM and the activation at 50 µM was 154%.

As to `COC(=O)c1ccc(NC(=O)COC2C(C)=C(C)C(=O)N2Cc2ccc(OC)cc2)nc1` (centres unmarked) [Compound 27, 6-{2-[1-(4-Methoxy-benzyl)-3,4-dimethyl-5-oxo-2,5-dihydro-1H-pyrrol-2-yloxy]-acetylamino}-nicotinic acid methyl ester], on Pancreas GK, the EC50 came out at 20 µM and the “EC100%” value was >50 µM. For the same molecule, at Liver GK, the EC50 was found to be 14.1 µM, the “EC100%” value was >50 µM and the activation at 50 µM amounted to 90%.

Regarding `COc1ccc(CN2C(=O)C(C)=C(C)C2OCC(=O)Nc2ccc(C)cn2)cc1` (centres unmarked) [Compound 28, 2-[1-(4-Methoxy-benzyl)-3,4-dimethyl-5-oxo-2,5-dihydro-1H-pyrrol-2-yloxy]-N-(5-methyl-pyridin-2-yl)-acetamide], at Pancreas GK, the EC50 stood at 18.5 µM and the “EC100%” value was >50 µM. For the same molecule, on Liver GK, the EC50 was found to be 14.2 µM, the “EC100%” value is >50 µM and the activation at 50 µM was 90%.

Consider `COc1cc(CN2C(=O)C(C)=C(C)C2SCC(=O)Nc2ccccn2)cc(OC)c1` (centres unmarked) [Compound 29, 2-[1-(3,5-Dimethoxy-benzyl)-3,4-dimethyl-5-oxo-2,5-dihydro-1H-pyrrol-2-ylsulfanyl]-N-pyridin-2-yl-acetamide], for which, on Pancreas GK, the EC50 worked out at 11.8 µM and the “EC100%” value was determined as 41.4 µM. Also, at Liver GK, the EC50 was 7.7 µM and the “EC100%” value was determined as 26.1 µM.

Consider `COc1ccc(CN2C(=O)C(C)=C(C)C2OCC(=O)Nc2ccccn2)cc1` (centres unmarked) [Compound 30, 2-[1-(4-Methoxy-benzyl)-3,4-dimethyl-5-oxo-2,5-dihydro-1H-pyrrol-2-yloxy]-N-pyridin-2-yl-acetamide], for which the results for the EC50 at Pancreas GK and at Liver GK were > 50 µM and 34.5 µM, respectively. For the same molecule, the “EC100%” value on Pancreas GK and at Liver GK was >50 µM in each case.

As to `COc1ccc(CN2C(=O)C(C)=C(C)C2OCC(=O)Nc2nccs2)cc1` (centres unmarked) [Compound 31, 2-[1-(4-Methoxy-benzyl)-3,4-dimethyl-5-oxo-2,5-dihydro-1H-pyrrol-2-yloxy]-N-thiazol-2-yl-acetamide], the activation at 50 µM came out at 3% on Pancreas GK and 21% on Liver GK.
